Measured values: patent US5210077A, “Antibodies to cytokinins having a glycosylated isoprenoid side chain and immunoassay methods” (The United States of America as represented by the …, priority 1989, dated 1993)
“Also recorded” adds a separate entry of the source. Read-outs that look alike come from different tables or passages of the source.

Experiments:
[1] = tested on: mouse polyclonal antibodies; test: Inhibition ELISA for the mouse polyclonal antibodies; assay type: binding; conditions: for binding by the mouse polyclonal antibody (in words): inhibition ELISA; for Antibody Bound (%): inhibition ELISA with hapten, None = 100
Description: Mouse antibodies were elicited in BALB/c mice by two intraperitoneal inoculations at 3-week intervals with the bovine serum albumin conjugate of E-9-(2-carboxyethyl)zeatin-O-β-D-glucopyranoside emulsified in complete Freund's adjuvant. The dosage was 50-80 μg of conjugate in 0.1-0.2 mL. The mice were bled 1 week after the second injection, and sera were obtained, and tested for antibody.
(§1) Antibodies were screened and further analyzed by solid-phase enzyme immunoassays as follows. Polyvinylchloride assay plates (Costar, Cambridge, MA), were coated with appropriate serum albumin conjugate (made with the O-glucoside derivative or the oxidized zeatin riboside, 10 μg/mL in PBS, 50 μL/well) for 4 h at room temperature or overnight at 4°. Plates were then washed with PBS containing 0.05% "Tween"-20 (PBS-Tween). Remaining sites were blocked by incubation for 1 h with 100 μL/well of 1% BSA in PBS-"Tween" solution (BSA-PBS-"Tween"). Plates were then rewashed and stored for up to 3 weeks at 4° in PBS containing sodium azide.
(§2) Direct binding (titration) and inhibition assays were performed with antibodies dissolved in BSA-PBS-"Tween", a diluent selected to minimize nonspecific interactions with the solid phase, and to suppress binding to the solid phase by antibodies specific for serum albumin.
(§3) Inhibition assay format was used to assess antibody specificity. Antibody at an appropriate dilution determined by titration to give between 50 and 100% of maximal binding was mixed with hapten solution and preincubated for 1 h at room temperature prior to application to the coated wells. In both formats, samples (50 μL/well) were generally applied to plates in triplicate and were incubated 1 h, with shaking. Plates were emptied, washed, rinsed with distilled water, and drained. HRP-labeled rabbit anti-mouse IgG (Zymed Laboratories, South San Francisco, CA) was added at an appropriate dilution (50 μL/well) and incubated for 1 h with shaking. The plates were then washed as before, and bound HRP detected by addition of 50 μL/well of substrate (1 mM ABTS and 6.7 mM H2 O2 in 60 mM sodium citrate buffer, pH 4.2). The absorbance was determined at 415 nm with a microplate reader (Model 308, Bio-Tek, Winooski, VT), generally after 15 min. In some cases, reactions were terminated by addition of 50 μL/well of 10% sodium dodecylsulfate.

[2] = tested on: monoclonal antibody ATCC HB 9658; test: Inhibition ELISA, specificity of monoclonal antibody ATCC HB 9658; assay type: binding, mouse; conditions: for Relative I50 (relative to E-zeatin-O-β-D-glucopyranoside) / IC50: antibody ATCC HB 9658; for IC50: read-out: I50
Description: as §1, §2
as §3, with “Antibody at an appropriate dilution determined by titration to give between 50 and 100% of maximal binding was mixed with hapten solution and preincubated for 1 h at room temperature prior to application to the coated wells.” left out
Calculations were performed as follows. Assay data was fit to a logistic model. Asymptotic values were determined by inspection of the assay curves, and other coefficients were determined by linear regression. […] Relative affinities are expressed using E-zeatin riboside or E-zeatin-O-β-D-glucopyranoside as standards.

[3] = tested on: monoclonal antibody ATCC HB 9658; test: Competition ELISA with HRP conjugate of 9-(2-carboxyethyl)zeatin-O-β-D-glucopyranoside and monoclonal antibody ATCC HB 9658; assay type: binding, mouse; conditions: for IC50: read-out: I50
Description: Competition ELISA using cytokinin conjugates of HRP was performed using polystyrene assay plates coated with mouse monoclonal antibodies specific for cytokinins. […] Immediately before use, assay plates were coated with 1 μg/mL of monoclonal IgG in BSA-PBS-Tween. Samples were mixed with an appropriate concentration of cytokinin-HRP conjugate and applied to assay wells in replicate (100 μL/well). After 1 h, wells were drained, washed, and rinsed. Bound conjugate was detected with ABTS substrate solution and quantified by determining absorbance at 415 nm. Calculations were performed as follows. Assay data was fit to a logistic model. Asymptotic values were determined by inspection of the assay curves, and other coefficients were determined by linear regression. […] Relative affinities are expressed using E-zeatin riboside or E-zeatin-O-β-D-glucopyranoside as standards.

Row | SMILES | binding by antibody of clone 240 / ATCC HB 9658 (in words) [2] | binding reduced relative to zeatin-O-β-D-glucopyranoside ([2]; inhibition ELISA, FIG. 4) | IC50 ([2]; inhibition ELISA) | IC50 [3] | binding by antibody of clone 240 / ATCC HB 9658 (in words) ([2]; listed as E-zeatin-O-β-D-glucopyranoside) | binding by antibody of clone 240 / ATCC HB 9658 (in words) ([2]; listed as zeatin-O-β-D-glucopyranoside) | binding by the mouse polyclonal antibody (in words) [1] | Antibody Bound (%) [1] | Relative I50 (relative to E-zeatin-O-β-D-glucopyranoside) ([2]; inhibition ELISA) | Relative I50 (relative to E-zeatin-O-β-D-glucopyranoside) [3]
1 | C/C(=C\CNc1ncnc2[nH]cnc12)CO [E-Zeatin, E-zeatin] | does not bind significantly; also recorded: do not bind | at least 10,000 fold | > 100 µM | > 100 µM | – | – | do not bind | 99 ± 3% | > 1100 | > 4800
2 | CC(CO)CCNc1ncnc2nc[nH]c12 (racemic) [Dihydrozeatin, (RS)-dihydrozeatin] | – | – | > 1000 µM | > 100 µM | – | – | – | – | > 11000 | > 4800
3 | CC(C)=CCNc1ncnc2nc[nH]c12 [Isopentenyladenine, N^6-2-isopentenyladenine] | – | – | > 1000 µM | > 100 µM | – | – | – | – | > 11000 | > 4800
4 | CO[C@@H]1O[C@H](CO)[C@@H](O)[C@H](O)[C@H]1O [β-Methylglucoside, β-methyl-D-glucopyranoside] | – | – | – | > 1000 µM | – | – | – | – | – | > 48000
5 | C/C(=C\CNc1ncnc2c1ncn2[C@@H]1O[C@H](CO)[C@@H](O)[C@H]1O)CO [9-ribosylzeatin] | do not bind | – | – | – | – | – | – | – | – | –
6 | C/C(=C\CNc1ncnc2c1ncn2[C@@H]1O[C@H](CO)[C@@H](O)[C@H](O)[C@H]1O)CO [E-Zeatin-9-β-D-glucopyranoside] | do not bind | – | > 100 µM | > 1000 µM | – | – | – | – | > 1100 | > 48000
7 | C/C(=C\CNc1ncnc2c1ncn2CCC(=O)O)CO[C@@H]1O[C@H](CO)[C@@H](O)[C@H](O)[C@H]1O [Carboxyethylzeatin-O-β-D-glucopyranoside, E-9-(2-carboxyethyl)zeatin-O-β-D-glucopyranoside] | – | – | – | – | – | – | binds | 76 ± 1% | – | –

The remaining molecules from weak to strong by IC50 [3], led by results:

Row | binding by antibody of clone 240 / ATCC HB 9658 (in words) [2] | binding reduced relative to zeatin-O-β-D-glucopyranoside ([2]; inhibition ELISA, FIG. 4) | IC50 ([2]; inhibition ELISA) | IC50 [3] | binding by antibody of clone 240 / ATCC HB 9658 (in words) ([2]; listed as E-zeatin-O-β-D-glucopyranoside) | binding by antibody of clone 240 / ATCC HB 9658 (in words) ([2]; listed as zeatin-O-β-D-glucopyranoside) | SMILES | binding by the mouse polyclonal antibody (in words) [1] | Antibody Bound (%) [1] | Relative I50 (relative to E-zeatin-O-β-D-glucopyranoside) ([2]; inhibition ELISA) | Relative I50 (relative to E-zeatin-O-β-D-glucopyranoside) [3]
8 | – | – | 1.2 µM | 0.49 µM | – | – | C/C(=C\CN1C(=O)c2ccccc2C1=O)CO[C@@H]1O[C@H](CO)[C@@H](O)[C@H](O)[C@H]1O [PBG, E-2-methyl-4-phthalimidobut-2-enyl-β-D-glucopyranoside] | – | – | 14 | 23
9 | – | – | 0.3 µM | 0.035 µM | – | – | C/C(=C\CNc1ncnc2c1ncn2[C@@H]1O[C@H](CO)[C@@H](O)[C@H]1O)CO[C@@H]1O[C@H](CO)[C@@H](O)[C@H](O)[C@H]1O [O-β-D-Glucopyranosyl-E-zeatin-9-riboside] | – | – | 3.4 | 1.7
10 | – | – | 0.087 µM | 0.021 µM | bind | binds | CC(=CCNc1ncnc2[nH]cnc12)COC1OC(CO)C(O)C(O)C1O [E-Zeatin-O-β-D-glucopyranoside, E-zeatin-O-β-D-glucopyranoside] | – | – | 1 | 1
